Reference: publication PMC3774141 (Bioorganic & medicinal chemistry letters, 2013)

Key:
[1] = system: human cancer cell lines (HeLa, A549, H1299, MCF-7); assay: antiproliferative activity, cancer cell lines tested; type: cell-based; conditions: read-out: IC50 against the cancer cell lines tested
tubulin = assay: inhibition of tubulin polymerization; type: biochemical
[2] = system: human non-small-cell lung carcinoma (A549); conditions: read-out: IC50 A549; values taken from the literature for comparison; cited from earlier work
[3] = system: breast adenocarcinoma (MCF-7); conditions: read-out: IC50 MCF-7; values taken from the literature for comparison; cited from earlier work
[4] = system: human cervix carcinoma (HeLa); conditions: read-out: IC50 HeLa; values taken from the literature for comparison; cited from earlier work

Compound	IC50 [1] [nM]	inhibitors of tubulin polymerization (result in words) (tubulin)	IC50 [2] [nM]	IC50 [3] [nM]	IC50 [4] [nM]
COc1ccc(-c2nnnn2-c2cc(OC)c(OC)c(OC)c2O)c(O)c1 [Compound 5a]	> 45000	inactive			
COc1ccc(-c2nnnn2-c2cc(OC)c(OC)c(OC)c2O)cc1 [Compound 5b]	> 45000	inactive			
COc1ccc(-c2nnnn2-c2cc(OC)c(OC)c(OC)c2)cc1 [Compound 5f]			222 ± 59	38.5 ± 5.8	2.6
